Source: paper PMC6150381, “Design, Synthesis, and Biological Evaluation of N,N-Disubstituted-4-arylthiazole-2-methylamine Derivatives as Cholesteryl Ester Transfer Inhibitors” (Molecules : A Journal of Synthetic Chemistry and Natural …, 2017)
Like-named read-outs stand apart in the source and are kept apart here. Blank lines part the entries; values can stand above or below the compound they belong to.

How the values were obtained:
[1] = biological target: T1, recombinant CETP (Homo sapiens, UniProt P11597); design: method as in previous work; conditions: in Figure 2; ref previous work; cited from earlier work
T1 construct: purchased Roar, New York, NY, USA RB-RPAK
T1 sequence (P11597 18-493): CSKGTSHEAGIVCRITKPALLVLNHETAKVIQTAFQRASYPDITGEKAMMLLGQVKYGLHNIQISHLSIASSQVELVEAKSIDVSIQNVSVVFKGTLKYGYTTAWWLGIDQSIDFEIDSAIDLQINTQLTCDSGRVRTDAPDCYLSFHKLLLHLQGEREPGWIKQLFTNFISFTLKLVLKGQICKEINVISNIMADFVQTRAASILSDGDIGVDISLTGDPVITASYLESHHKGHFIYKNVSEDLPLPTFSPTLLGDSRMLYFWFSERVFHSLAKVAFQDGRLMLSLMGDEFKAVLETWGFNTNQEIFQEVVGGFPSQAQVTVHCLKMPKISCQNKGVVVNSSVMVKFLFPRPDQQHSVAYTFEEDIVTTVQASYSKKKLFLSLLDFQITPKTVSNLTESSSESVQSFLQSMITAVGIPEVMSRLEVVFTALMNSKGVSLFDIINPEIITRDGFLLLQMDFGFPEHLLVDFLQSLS

[2] = design: method as in PMID 26047975; conditions: phase II clinical trials; ref [18]; cited from earlier work
[3] = ref [12],[13],[14], cited from earlier work
[4] = biological target: T1, recombinant CETP; test: In vitro CETP inhibitory assay (BODIPY-CE fluorescence assay, CETP RP Activity Assay Kit); format: biochemical; conditions: CETP inhibition, eight-point titration, each concentration tested three times
Method: The IC50 was determined from a curve fit of the data with each concentration tested three times.

[5] = In vitro metabolic stability study, human liver microsomes; format: in vitro ADME; conditions: for Remaining (T = 60 min): human liver microsome, with NADPH regenerating system; for microsomal CLint at 10 µM: human, liver microsomes, read-out: CL (clearance rate)
Method: (§1) Ten microliters (10 μL, 100 μM/L) of compounds and 80 μL of liver microsomes were mixed and incubated at 37 °C for 10 min, and then 10 μL of NADPH regenerating system was added. Samples were obtained at 0 min, 5 min, 10 min, 20 min, 30 min and 60 min. respectively, and 300 μL stop solution (cold in 4 °C, including 100 ng/mL tolbutamide and 100 ng/mL labetalol) was added to terminate the reaction. After oscillating for 10 min, the plates were centrifuged (4000 rpm) at room temperature for 20 min, and the supernatants were used for analysis.

[6] = In vitro metabolic stability study, rat liver microsomes; format: in vitro ADME; conditions: for Remaining (NCF = 60 min) / Remaining (T = 60 min): rat liver microsome; for Remaining (NCF = 60 min): no co-factor (no NADPH regenerating system); for Remaining (T = 60 min): with NADPH regenerating system; for microsomal CLint at 10 µM: rat, liver microsomes, read-out: CL (clearance rate)
Method: as §1

[7] = In vitro metabolic stability study, human liver microsomes; format: in vitro ADME; conditions: human liver microsome, no co-factor (no NADPH regenerating system)

SMILES: O=C(CCN(Cc1ccc(F)cc1)c1cccc(Oc2ccccc2)c1)Nc1ccccc1 [Compound 5]
IC50 [1]: 24.8 µM

SMILES: CCOC(=O)N1c2ccc(C(F)(F)F)cc2[C@@H](N(Cc2cc(C(F)(F)F)cc(C(F)(F)F)c2)c2ncc(OCCCC(=O)O)cn2)C[C@H]1CC [AMG-899]
increased HDL-C levels [2]: 179.1% | reduced LDL-C levels [2]: 45.3%

SMILES: CCOC(=O)N1c2ccc(C(F)(F)F)cc2[C@@H](N(Cc2cc(C(F)(F)F)cc(C(F)(F)F)c2)C(=O)OC)C[C@H]1CC [torcetrapib]
increase of HDL-C ([3]; human studies, dose-dependent): greater than 100% | LDL-C decreasing ([3]; human studies): up to 42% | increase in deaths ([3]; torcetrapib/atorvastatin group compared to the atorvastatin group): 58%

SMILES: COc1ccc(N(Cc2ccc(F)cc2)Cc2nc(-c3ccc([N+](=O)[O-])cc3)cs2)cc1OC [Compound 30, N-(4-Fluorobenzyl)-3,4-dimethoxy-N-((4-(4-nitrophenyl)thiazol-2-yl)methyl)aniline]
IC50 [4]: 0.79 ± 0.02 µM | metabolic stability (in words) ([5]; human and rat liver microsomes): weak human/rat liver microsome stability | Remaining (T = 60 min) [5]: 22.9% | microsomal CLint at 10 µM [5]: 48.1 µL/min/mg | Remaining (NCF = 60 min) [6]: 90.5% | Remaining (T = 60 min) [6]: 3.2% | microsomal CLint at 10 µM [6]: 122 µL/min/mg | melting point: 111 to 112.8 °C | Remaining (NCF = 60 min) [7]: 68.0%

Other lines, results leading:

IC50 [4]: 11 ± 0.31 µM | melting point: 76.3 to 79 °C
SMILES: COc1ccc(-c2csc(CN(Cc3ccc(F)cc3)c3ccc(OC)c(OC)c3)n2)cc1 [Compound 43, N-(4-Fluorobenzyl)-3,4-dimethoxy-N-((4-(4-methoxyphenyl)thiazol-2-yl)methyl)aniline]

IC50 [4]: 16.7 ± 0.23 µM | melting point: 144.7 to 146.2 °C
SMILES: COc1ccc(N(Cc2ccc(F)cc2)Cc2nc(-c3ccc(N)cc3)cs2)cc1OC [Compound 44, N-((4-(4-Aminophenyl)thiazol-2-yl)methyl)-N-(4-fluorobenzyl)-3,4-dimethoxyaniline]

IC50 [4]: 0.97 ± 0.01 µM | Remaining (T = 60 min) [5]: 39.3% | microsomal CLint at 10 µM [5]: 29.8 µL/min/mg | Remaining (NCF = 60 min) [6]: 101.3% | Remaining (T = 60 min) [6]: 10.1% | microsomal CLint at 10 µM [6]: 79.3 µL/min/mg | melting point: 88.7 to 89.5 °C | Remaining (NCF = 60 min) [7]: 69.1%
SMILES: COc1ccc(N(Cc2ccc(F)cc2)Cc2nc(-c3ccc(C(F)(F)F)cc3)cs2)cc1OC [Compound 32, N-(4-Fluorobenzyl)-3,4-dimethoxy-N-((4-(4-(trifluoromethyl)phenyl)thiazol-2-yl)methyl)aniline]
